Source: ChEMBL document CHEMBL4420071, “Method for treating skin with retinoids and retinoid boosters” (2013)

Tests used:
[1] = species: Homo sapiens; assay: Inhibition of transglutaminase in human keratinocytes assessed as mean transglutaminase activity level at 8.2 10^-6M in presence of 10 uM retinal relative to retinal alone; format: cell-based; design: scale not given: the % may be the effect or the level left
[2] = species: Homo sapiens; assay: Inhibition of transglutaminase in human keratinocytes assessed as mean transglutaminase activity level at 1.65 10^-7M in presence of 10 uM retinal relative to retinal alone; format: cell-based; design: scale not given: the % may be the effect or the level left
[3] = species: Homo sapiens; assay: Inhibition of transglutaminase in human keratinocytes assessed as mean transglutaminase activity level at 1.1 10^-4M in presence of 10 uM retinal relative to retinal alone; format: cell-based; design: scale not given: the % may be the effect or the level left
[4] = species: Homo sapiens
[5] = species: Homo sapiens; assay: Inhibition of transglutaminase in human keratinocytes assessed as mean transglutaminase activity level at 3.29 10^-7M in presence of 10 uM retinal relative to retinal alone; format: cell-based; design: scale not given: the % may be the effect or the level left
[6] = target: T1, Cellular retinoic acid-binding protein 2 (Homo sapiens) (UniProt P29373); assay: Inhibition of radioactive all-trans retinoic acid binding to CRABP2 (unknown origin) expressed in Escherichia coli BLR(DE3)pLys incubated for 1 hr by scintillation counting assay; conditions: concentration not given here
T1 sequence (whole entry): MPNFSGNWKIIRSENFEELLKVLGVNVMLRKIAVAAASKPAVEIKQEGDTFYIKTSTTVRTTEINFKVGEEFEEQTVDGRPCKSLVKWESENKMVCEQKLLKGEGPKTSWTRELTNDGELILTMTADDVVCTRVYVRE

[7] = species: Homo sapiens; assay: Inhibition of transglutaminase in human keratinocytes assessed as mean transglutaminase activity level at 1.23 10^-5M in presence of 10 uM retinal relative to retinal alone; format: cell-based; design: scale not given: the % may be the effect or the level left
[8] = species: Homo sapiens; assay: Inhibition of transglutaminase in human keratinocytes assessed as mean transglutaminase activity level at 3.73 10^-4M in presence of 10 uM retinal relative to retinal alone; format: cell-based; design: scale not given: the % may be the effect or the level left
[9] = species: Homo sapiens; assay: Inhibition of transglutaminase in human keratinocytes assessed as mean transglutaminase activity level at 4.1 10^-5M in presence of 10 uM retinal relative to retinal alone; format: cell-based; design: scale not given: the % may be the effect or the level left
[10] = species: Homo sapiens; assay: Inhibition of transglutaminase in human keratinocytes assessed as mean transglutaminase activity level at 1.1 10^-8M in presence of 10 uM retinal relative to retinal alone; format: cell-based; design: scale not given: the % may be the effect or the level left
[11] = species: Homo sapiens; assay: Inhibition of transglutaminase in human keratinocytes assessed as mean transglutaminase activity level at 1.0 10^-3M in presence of 10 uM retinal relative to retinal alone; format: cell-based; design: scale not given: the % may be the effect or the level left
[12] = species: Homo sapiens; assay: Inhibition of transglutaminase in human keratinocytes assessed as mean transglutaminase activity level at 5.0 10^-8M in presence of 10 uM retinal relative to retinal alone; format: cell-based; design: scale not given: the % may be the effect or the level left
[13] = species: Homo sapiens; assay: Inhibition of transglutaminase in human keratinocytes assessed as mean transglutaminase activity level at 6.58 10^-7M in presence of 10 uM retinal relative to retinal alone; format: cell-based; design: scale not given: the % may be the effect or the level left
[14] = species: Homo sapiens; assay: Inhibition of transglutaminase in human keratinocytes assessed as mean transglutaminase activity level at 2.19 10^-9M in presence of 10 uM retinal relative to retinal alone; format: cell-based; design: scale not given: the % may be the effect or the level left
[15] = species: Homo sapiens; assay: Inhibition of transglutaminase in human keratinocytes assessed as mean transglutaminase activity level at 1.79 10^-9M in presence of 10 uM retinal relative to retinal alone; format: cell-based; design: scale not given: the % may be the effect or the level left
[16] = species: Homo sapiens; assay: Inhibition of transglutaminase in human keratinocytes assessed as mean transglutaminase activity level at 5.33 10^-5M in presence of 10 uM retinal relative to retinal alone; format: cell-based; design: scale not given: the % may be the effect or the level left
[17] = species: Homo sapiens; assay: Inhibition of transglutaminase in human keratinocytes assessed as mean transglutaminase activity level at 1.6 10^-4M in presence of 10 uM retinal relative to retinal alone; format: cell-based; design: scale not given: the % may be the effect or the level left
[18] = species: Homo sapiens; assay: Inhibition of transglutaminase in human keratinocytes assessed as mean transglutaminase activity level at 1.98 10^-6M in presence of 10 uM retinal relative to retinal alone; format: cell-based; design: scale not given: the % may be the effect or the level left
[19] = species: Homo sapiens; assay: Inhibition of transglutaminase in human keratinocytes assessed as mean transglutaminase activity level at 8.78 10^-9M in presence of 10 uM retinal relative to retinal alone; format: cell-based; design: scale not given: the % may be the effect or the level left
[20] = species: Homo sapiens; assay: Inhibition of transglutaminase in human keratinocytes assessed as mean transglutaminase activity level at 4.39 10^-8M in presence of 10 uM retinal relative to retinal alone; format: cell-based; design: scale not given: the % may be the effect or the level left
[21] = species: Homo sapiens; assay: Inhibition of transglutaminase in human keratinocytes assessed as mean transglutaminase activity level at 1.78 10^-5M in presence of 10 uM retinal relative to retinal alone; format: cell-based; design: scale not given: the % may be the effect or the level left
[22] = species: Homo sapiens; assay: Inhibition of transglutaminase in human keratinocytes assessed as mean transglutaminase activity level at 5.93 10^-6M in presence of 10 uM retinal relative to retinal alone; format: cell-based; design: scale not given: the % may be the effect or the level left
[23] = species: Rattus norvegicus; assay: Inhibition of retinal reductase in Sprague-Dawley rat liver microsomes at 100 uM using all-trans retinaldehyde and NADPH by HPLC analysis relative to control
[24] = species: Homo sapiens; assay: Inhibition of transglutaminase in human keratinocytes assessed as mean transglutaminase activity level at 3.0 10^-3M in presence of 10 uM retinal relative to retinal alone; format: cell-based; design: scale not given: the % may be the effect or the level left
[25] = species: Homo sapiens; assay: Inhibition of transglutaminase in human keratinocytes assessed as mean transglutaminase activity level at 9.0 10^-3M in presence of 10 uM retinal relative to retinal alone; format: cell-based; design: scale not given: the % may be the effect or the level left
[26] = species: Homo sapiens; assay: Inhibition of transglutaminase in human keratinocytes at 1 uM relative to control; format: cell-based

| Structure (SMILES) | Activity [1] | Activity [2] | Activity [3] | Activity [5] | Activity [7] | Activity [8] | Activity [9] | Activity [11] | inhibition [23] | Activity [24] | Activity [25] | IC20 [4] | other results |
| --- | --- | --- | --- | --- | --- | --- | --- | --- | --- | --- | --- | --- | --- |
| CC(C)CCCCCCCCCCCCCCC(=O)O | 103% | 95% | 1.2% | 123% | 80% | -5.3% | 67% | -8.6% | – | – | – | 6.23 ×10⁻⁵ M | inhibition [6]: > 50%; Activity [10]: 78%; Activity [12]: 78% |
| CCCCCCCC(=O)OC[C@H](COP(=O)([O-])OCC[N+](C)(C)C)OC(=O)CCCCCCC | – | – | – | – | – | – | – | – | – | – | – | – | Activity [13]: 92.8%; Activity [14]: 88.6%; Activity [15]: 82%; Activity [16]: 95.4%; Activity [17]: 58.1%; Activity [18]: 110%; Activity [19]: 119%; Activity [20]: 127%; Activity [21]: 104%; Activity [22]: 129% |
| CC1=C(/C=C/C(C)=C/C=C/C(C)=C/C=O)C(C)(C)CCC1 | – | – | – | – | – | – | – | – | – | – | – | – | inhibition [26]: 55% |

The next lines start with results.

| Activity [1] | Activity [2] | Activity [3] | Activity [5] | Activity [7] | Activity [8] | Activity [9] | Activity [11] | inhibition [23] | Activity [24] | Activity [25] | Structure (SMILES) | IC20 [4] | other results |
| --- | --- | --- | --- | --- | --- | --- | --- | --- | --- | --- | --- | --- | --- |
| 119% | 77% | -23% | 98% | 94.9% | 68% | 65.9% | -7.5% | 54% | -5.7% | -11% | CC/C=C\C/C=C\C/C=C\CCCCCCCC(=O)O | 1.21 ×10⁻⁴ M | – |
| 146% | 106% | 4.4% | 60.2% | 62.6% | 79.2% | 76.8% | -16.4% | 62% | 0.1% | -6% | CCCCC/C=C\C/C=C\CCCCCCCC(=O)O | 8.95 ×10⁻⁵ M | – |
